Assay results from patent publication US6362369B1, “Phthalic acid diamide derivatives fluorine-containing aniline compounds as starting material, agricultural and horticultural insecticides, and a method for application of the insecticides” (Nihon Nohyaku Co., Ltd., priority 1997, dated 2002).

Legend:
[1] = system: diamondback moth (Plutella xylostella); assay: Insecticidal effect on diamondback moth (Test Example 1); type: in vivo; conditions: for Insecticidal effect, Test Example 1 / Insecticidal effect (Test Example 1), judged from mortality: diamondback moth; for Insecticidal effect on diamondback moth (Test Example 1), judged grade: mortality judged according to the criterion shown in Test Example 1; for Insecticidal effect (Test Example 1), judged from mortality: judged by the criterion of Test Example 1
How it was run: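 Read-out was mortality from hatched-insect counts taken 6 days after the egg-bearing cabbage seedling was immersed, graded by set criteria. Seedlings were air-dried and kept at 25° C after treatment. Groups of 10 insects, in triplicate.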

[2] = system: rice leafroller (Cnaphalocrocis medinalis); assay: Insecticidal effect on rice leafroller (Test Example 3); type: in vivo; conditions: 500 ppm, 25° C., humidity 70%; for Insecticidal effect, Test Example 3: rice lamina immersed; for Insecticidal effect, Test Example 3 / Insecticidal effect on rice leafroller (Test Example 3), judged grade: four days after inoculation; for Insecticidal effect on rice leafroller (Test Example 3), judged grade / Insecticidal effect (Test Example 3), judged from mortality: rice lamina dip; for Insecticidal effect on rice leafroller (Test Example 3), judged grade: third-instar larvae; for Insecticidal effect (Test Example 3), judged from mortality: 4 days after inoculation
How it was run: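 Groups of 10 third-instar larvae, in triplicate, are placed on air-dried lamina resting on wet filter paper. Incubation runs four days at 25° C with 70% humidity before survivors and dead are tallied.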

[3] = judged by the mortality criterion of Test Example 1
[4] = third-instar larvae of rice leafroller
[5] = mortality judged by criterion of Test Example 1
[6] = rice leafroller third-instar larvae

SMILES	Insecticidal effect, Test Example 1 [1, 3]	Insecticidal effect, Test Example 3 [2, 4]	Insecticidal effect on diamondback moth (Test Example 1), judged grade [1]	Insecticidal effect on rice leafroller (Test Example 3), judged grade [2]	other results
CCNC(=O)c1cccc(Cl)c1C(=O)Nc1ccc(OC(F)F)cc1C [compound 9]	A (100)	A (100)			
COCOc1ccc(NC(=O)c2ccccc2C(=O)NC(C)C)c(C)c1 [compound 69]	A (100)	A (100)			
Cc1cc(C#Cc2ccccc2)ccc1NC(=O)c1cccc(Cl)c1C(=O)NC(C)C [compound 1325]					Insecticidal effect, Test Example 1 [1, 5]: A (100); Insecticidal effect, Test Example 3 [2, 6]: A (100)
CC(C)NC(=O)c1c(Cl)cccc1C(=O)Nc1ccc(OC(F)F)c(F)c1 [compound 137]	A (100)	A (100)			
CC(C)NC(=O)c1c(C(=O)Nc2ccc([S+]([O-])C(F)(F)Br)cc2)cccc1[N+](=O)[O-] (stereo not drawn) [compound 1109]					Insecticidal effect, Test Example 1 [1, 5]: A (100); Insecticidal effect, Test Example 3 [2, 6]: A (100)
CC(C)NC(=O)c1cccc(I)c1C(=O)Nc1ccc(OC(F)(F)F)cc1Cl [compound 467]			A (100)	A (100)	
CC(C)NC(=O)c1cccc(Cl)c1C(=O)Nc1ccc2c(c1)nc(C(F)(F)F)n2C [compound 257]	A (100)	B (99-90)			
Cc1cc(CCC(C)(C)C)ccc1NC(=O)c1cccc(Cl)c1C(=O)NC(C)C [compound 1323]					Insecticidal effect, Test Example 1 [1, 5]: A (100); Insecticidal effect, Test Example 3 [2, 6]: A (100)
CC(C)NC(=O)c1ccccc1C(=O)Nc1ccc(Cl)cc1F [compound 1632]					Insecticidal effect (Test Example 1), judged from mortality [1]: A (100); Insecticidal effect (Test Example 3), judged from mortality [2, 4]: A (100)
CC(C)NC(=O)c1ccccc1C(=O)Nc1cccc(Cl)c1Cl [compound 41]	A (100)	A (100)			
CC(C)NC(=O)c1cccc(F)c1C(=O)Nc1cccc(Cl)c1Cl [compound 543]			A (100)	A (100)	
CCN(CC)C(=O)c1c(C(=O)Nc2cc(Cl)ccc2C)cccc1[N+](=O)[O-] [compound 13]	D (79-50)	D (79-50)			
CC(C)NC(=O)c1c(I)cccc1C(=O)Nc1ccc(C(C)C)c2scnc12 [compound 1763]					Insecticidal effect (Test Example 1), judged from mortality [1]: A (100); Insecticidal effect (Test Example 3), judged from mortality [2, 4]: A (100)
CC(C)NC(=O)c1c(C(=O)Nc2ccccc2Cl)cccc1[N+](=O)[O-] [compound 586]			A (100)	D (79-50)	
CC(C)NC(=O)c1cccc(I)c1C(=O)Nc1ccc(I)cc1 [compound 413]	A (100)	C (89-80)			
Cc1cc(OC(F)F)ccc1NC(=O)c1c(Cl)cccc1C(=O)NC1CC1 [compound 850]			A (100)	A (100)	
Cc1c(NC(=O)c2c(Br)cccc2C(=O)NC(C)C)ccc(OC(F)F)c1Cl [compound 332]	A (100)	A (100)			
CC(C)NC(=O)c1cccc(Cl)c1C(=O)Nc1ccc(OC(F)(F)F)cc1Br [compound 235]	A (100)	A (100)			
Cc1cc(C(F)(F)C(F)(F)F)ccc1NC(=O)c1cccc(I)c1C(=O)N(C)CC(C)C [compound 1043]					Insecticidal effect, Test Example 1 [1, 5]: A (100); Insecticidal effect, Test Example 3 [2, 6]: A (100)
CC(C)NC(=O)c1c(C(=O)Nc2ccc(SC(F)(F)Br)cc2)cccc1[N+](=O)[O-] [compound 1108]					Insecticidal effect, Test Example 1 [1, 5]: A (100); Insecticidal effect, Test Example 3 [2, 6]: A (100)
CC(C)NC(=O)c1cccc(Br)c1C(=O)Nc1ccc2c(c1)OCO2 [compound 337]	A (100)	A (100)			

SMILES	Insecticidal effect, Test Example 1 [1, 3]	Insecticidal effect, Test Example 3 [2, 4]	Insecticidal effect on diamondback moth (Test Example 1), judged grade [1]	Insecticidal effect on rice leafroller (Test Example 3), judged grade [2]	other results
COc1ccccc1CNC(=O)c1c(Cl)cccc1C(=O)Nc1ccc(C(F)(F)C(F)(F)F)cc1C [compound 1343]					Insecticidal effect, Test Example 1 [1, 5]: A (100); Insecticidal effect, Test Example 3 [2, 6]: A (100)
CC(C)NC(=O)c1cccc(F)c1C(=O)Nc1ccc(OC(F)(F)F)cc1Cl [compound 562]			A (100)	A (100)	
CC(C)NC(=O)c1cccc(F)c1C(=O)Nc1ccc(C(F)(F)C(F)(F)F)cc1Cl [compound 1517]					Insecticidal effect (Test Example 1), judged from mortality [1]: A (100); Insecticidal effect (Test Example 3), judged from mortality [2, 4]: A (100)
Cc1cc(SC(C)C)ccc1NC(=O)c1cccc(Cl)c1C(=O)NC(C)C [compound 153]	A (100)	D (79-50)			
Cc1cc(C(F)(F)C(F)(F)F)ccc1NC(=O)c1cccc(Cl)c1C(=O)NCCOc1cccc(Cl)c1 [compound 1370]					Insecticidal effect, Test Example 1 [1, 5]: A (100); Insecticidal effect, Test Example 3 [2, 6]: A (100)
CC(C)NC(=O)c1c(C(=O)Nc2ccc(C(C)C)cc2)cccc1[N+](=O)[O-] [compound 604]			A (100)	D (79-50)	
CC(C)NC(=O)c1c(Cl)cccc1C(=O)Nc1ccc(SC(F)F)cc1 [compound 98]	A (100)	C (89-80)			
Cc1cc(Sc2ccc(Cl)cc2)ccc1NC(=O)c1c(F)cccc1C(=O)NC(C)C [compound 575]			A (100)	A (100)	
Cc1cc(OC(F)F)ccc1NC(=O)c1cccc([N+](=O)[O-])c1C(=O)NC1CCCC1 [compound 856]			A (100)	D (79-50)	
CC(C)CNC(=O)c1ccccc1C(=O)Nc1ccc(C(F)(F)F)cc1 [compound 833]			A (100)	D (79-50)	
Cc1cc(OC(F)F)ccc1NC(=O)c1ccc(F)cc1C(=O)NC(C)C [compound 531]			A (100)	A (100)	
Cc1cc(Oc2ncc(C(F)(F)F)cc2Cl)ccc1NC(=O)c1c(Br)cccc1C(=O)NC(C)C [compound 336]	A (100)	D (79-50)			
Cc1cc(Cl)ccc1NC(=O)c1ccccc1C(=O)N(C)C(C)C [compound 826]			A (100)	A (100)	
CC(C)NC(=O)c1ccccc1C(=O)Nc1ccc2c(c1)nc(C(F)(F)F)n2C [compound 86]	B (99-90)	B (99-90)			
CC(C)NC(=O)c1ccccc1C(=O)Nc1ccc2c(c1)OC(F)(F)C(F)(F)O2 [compound 975]					Insecticidal effect, Test Example 1 [1, 5]: A (100); Insecticidal effect, Test Example 3 [2, 6]: A (100)
COc1cccc(C(=O)NC(C)C)c1C(=O)Nc1ccc(Br)cc1C [compound 771]			A (100)	C (89-80)	
Cc1cc(C(F)(F)C(F)(F)F)ccc1NC(=O)c1cccc(Cl)c1C(=O)NCCc1ccc(Cl)cc1 [compound 1360]					Insecticidal effect, Test Example 1 [1, 5]: A (100); Insecticidal effect, Test Example 3 [2, 6]: C (89-80)
CC(C)(C)NC(=O)c1c(I)cccc1C(=O)Nc1ccc(C(F)(C(F)(F)F)C(F)(F)F)c2c1CCCC2 [compound 1727]					Insecticidal effect (Test Example 1), judged from mortality [1]: A (100); Insecticidal effect (Test Example 3), judged from mortality [2, 4]: A (100)
Cc1cc(Cl)ccc1NC(=O)c1c(F)ccc(F)c1C(=O)NC(C)C [compound 582]			A (100)	A (100)	
CC(C)NC(=O)c1c(I)cccc1C(=O)Nc1ccc(C(F)(C(F)(F)F)C(F)(F)F)cc1Oc1ccccc1 [compound 1768]					Insecticidal effect (Test Example 1), judged from mortality [1]: A (100); Insecticidal effect (Test Example 3), judged from mortality [2, 4]: A (100)
Cc1cc(OC(F)(F)F)ccc1NC(=O)c1c(I)cccc1C(=O)NC(C)c1ccccn1 (stereo not drawn) [compound 1776]					Insecticidal effect (Test Example 1), judged from mortality [1]: A (100); Insecticidal effect (Test Example 3), judged from mortality [2, 4]: A (100)
